Measured values taken from patent US9017938B2, “Use of microrna-199b-5p in medical and diagnostic field” (Advanced Accelerator Applications, priority 2009, dated 2015).

Experiments:
ONS76 cells = test: Proliferation assay MTS, ONS76; format: cell-based; settings: transient transfection vs mock-transfected cells
Protocol: Cell proliferation was determined using the CellTiter96 AQueous Non-Radioactive Cell Proliferation Assay Kit (Promega Madison, Wis.). The cells were seeded into 96-well plates at a density of 1×10^3 cells/well in EMEM without or with FBS. After 0, 24, 48 and 72 h, MTS ([3-(4,5-dimethylthiazol-2-yl)-5-(3-carboxymethoxyphenyl)-2-(4-sulfophenyl)-2H-tetrazolium]) and PMS (phenazine methosulfate) were added to each well and after 4 h the absorbance of each well was measured at 490 nm (OD490) using Multilabel counter Victor^3 (Perkin Elmer). Each condition was performed with five wells and each experiment was repeated twice.

Daoy cells [1] = test: FACS cell-cycle analysis (propidium iodine); format: cell-based, human
Protocol: The flow cytometry analysis of S-phase fractions and cell-cycle kinetics were carried out using a FACSCalibur (Becton Dickinson, San Jose, Calif.) using CELL Quest version 3.3 software. The CD133 studies were carried out using the same instrument, with antibodies from Miltenyi Biotec (Auburn, Calif.), according to the manufacturer instructions. In brief, the cells were blocked in Fc receptor blocking reagent and incubated with an anti-CD133/1 (AC133)-phycoerythrin antibody (Miltenyi Biotec), for 10 min in the dark at 4° C. The cells were then washed and resuspended in PBS. Cells expressing higher levels of CD133 than the immunoglobulin G (IgG) controls were considered positive. For analyses of the side populations, cells […] were incubated with Hoechst 33342 (5 μmol/L; Sigma) for 90 min at 37° C. in EMEM containing 2% FBS. To ensure the correct identification of the side population cells, the cells were incubated as above with the addition of 50 μM verapamil (Sigma).

Daoy cells [2] = test: In-vitro cell-motility assay (Boyden chamber); format: cell-based, human; settings: 199bSC1 vs empty vector control, 0.5% FBS chemoattractant
Protocol: The control DAOY cell line and the stable DAOY-199bSC1 clone were used in the ‘cell-motility’ assays. Cell migration assays were performed with 8-μm pore size Transwells (Costar). The cells were suspended by trypsinization, washed, and resuspended in 100 μl serum-free DMEM containing 0.1% BSA (5×10^4 cells) and placed in the upper chamber of the Transwells. The lower chamber was filled with 600 μl serum-free DMEM supplemented with 0.5% FBS, as the chemo-attractor. The cells were allowed to migrate for 1 h at 37° C. Cells migrating to the lower side of the polycarbonate membrane were fixed with 2.5% glutaraldehyde and stained with Hematoxylin solution (Sigma). The cells were counted, and the analysis performed on three Transwells for each condition, and each experiment was repeated twice.

Daoy cells [3] = test: Orthotopic cerebellar xenograft (BLI, PET-CT, immunohistochemistry); format: in vivo, nude mice; settings: 199bSC1 clone injected into fourth ventricle, four weeks, vs control cells
Protocol: The mice were kept in a ventilated cage (26° C.) for 1 h prior to imaging studies. Anesthesia was performed with intraperitoneal administration of a mixture of ketamine (100 mg/kg) and xylazine (10 mg/kg) (injection volume, 100 μl/10 g). PET was performed 1 h after administration of 3′-deoxy-3′-[18F]fluorothymidine ([18F]FLT), a marker of tumor proliferation (50 μL; 7.4 MBq; scan time, 18 min), in a lateral caudal vein, using an animal PET scanner (GE Healthcare eXplore Vista, FWHM 1.6 mm). High resolution CT studies (GE Healtcare eXplore Locus; spatial resolution, 45 μm) were performed within 24 h from the PET.
Lesion volumes were calculated from PET data using in-house-developed software (based on IDL, ITT Vis Inc), by summarizing all spatially connected voxels with SUV>50% SUVmax. Lesion profiles defined with these procedures were used for ROI-based comparison between AdV5-Mock and AdV5-199b.
Unmasking was performed in 10 mM citrate buffer, pH 6, at 97° C. for 45 min. […]
To establish intracerebellar xenograft models, 6-to-8-week-old SCID mice were anesthetized with Tribromoethanol (Avertin®) (50 mg/kg); after this, a small skin incision (1 mm) was made and a burr hole (0.7 mm in diameter) created with a microsurgical drill (Fine Science Tools, Foster City, Calif.). […] The animals were monitored weekly by bioluminescence to evaluate tumor growth for 8 weeks.

[4] = stable 199bSC1 clone vs empty vector clone

With “miR-199b-5p: mature microRNA CCCAGUGUUUAGACUAUCUGUUC (SEQ ID NO:11); over-expressed from pre-miR-199b construct, e.g. stable Daoy clones 199bSC1, 199bMC1 (listed as RNA, chemistry not fully specified)” the proliferation (ONS76 cells) was “decreased proliferation”, the “changes in cell cycle” value (Daoy cells [1]; stable 199bMC1 clone) was “did not show significant changes” and the “decrease in S-phase fractions” value (Daoy cells [1]; [4]) was 31%. For the same substance, the “increase in cells in G0-G1” value (Daoy cells [1]; [4]) was 15%, the cell motility (Daoy cells [2]) was “did not lead to a decrease in cell motility” and the “tumor growth by BLI” value (Daoy cells [3]) was “considerably lower”.
